{
  "source": "patent US20110111002A1",
  "about": "“TRANSPORT AND DELIVERY OF GLUTATHIONE INTO HUMAN CELLS USING GOLD NANOPARTICLES” (priority 2009, published 2011)",
  "origin": "cited, not measured here",
  "key": {"[1]": {"tested_on": "intracellular glutathione concentration", "settings": "versus the three component amino acids (precursors)"}, "[2]": {"settings": "humans, injectable"}, "cell type tested": {"tested_on": "cell type tested", "settings": "irrespective of the cell type tested"}},
  "data": [
    {"smiles": "N[C@@H](CCC(=O)N[C@@H](CS)C(=O)NCC(=O)O)C(=O)O", "note": "[GSH, L-gammaglutamyl-L-cysteinylglycine]", "values": [
      {"measurement": "efficiency in raising the intracellular glutathione concentration compared to the precursors", "setting": "[1]", "value": "three times more efficient"}
    ]},
    {"smiles": "O=C([O-])CC([S-])C(=O)[O-].[Au+].[Na+].[Na+]", "note": "(stereo not drawn) [Myochrisine]", "values": [
      {"measurement": "tolerance of high concentrations", "setting": "[2]", "value": "excellent tolerance"}
    ]},
    {"smiles": "O=C([O-])CC([S-])C(=O)[O-].[Au+].[Na+].[Na+]", "note": "(stereo not drawn) [Tauredon]", "values": [
      {"measurement": "toxicity", "setting": "cell type tested", "value": "comparatively nontoxic"}
    ]}
  ]
}
